System: HEK293T cells carrying the ATF4 luciferase reporter
Assay: ATF4-Luc assay, in vitro model of Vanishing Cell White Matter Disease (VWMD)
Type: cell-based
Settings: Homo sapiens, HEK-293T, 1 μg/mL tunicamycin, 7 hours, One Glo luminescence
Method in brief: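 Reporter cells were stably generated by retroviral transduction and puromycin selection, then seeded at 30,000 cells/well. Next day, cells received 1 μg/mL tunicamycin with 200 nM test compound for 7 h, and luciferase luminescence was read with a one-step reagent. Values reported as EC50.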

| SMILES | EC50 [nM] |
| --- | --- |
| O=C(COc1ccc(Cl)c(F)c1)NC12CCC(NC(=O)c3ccccn3)(CC1)C(O)C2 (stereo not drawn) [Compound 167, N-{4-[2-(4-chloro-3-fluorophenoxy)acetamido]-2-hydroxybicyclo[2.2.2]octan-1-yl}pyridine-2-carboxamide] | 50 to 250 |
| Cn1cc(Cl)c(C(=O)NC23CC(NC(=O)COc4ccc(Cl)c(F)c4)(C2)C3)n1 [Compound 871, 4-chloro-N-{3-[2-(4-chloro-3-fluorophenoxy)acetamido]bicyclo[1.1.1]pentan-1-yl}-1-methyl-1H-pyrazole-3-carboxamide] | 250 to 1000 |
| CC(C)c1cc(C(=O)NC23CC(NC(=O)COc4ccc(Cl)c(F)c4)(C2)C3)on1 [Compound 350, N-{3-[2-(4-chloro-3-fluorophenoxy)acetamido]bicyclo[1.1.1]pentan-1-yl}-3-(propan-2-yl)-1,2-oxazole-5-carboxamide] | 250 to 1000 |
| O=C(COc1ccc(Cl)c(F)c1)NC12CC(NC(=O)c3cnc(C4CCOCC4)o3)(C1)C2 [Compound 139, N-{3-[2-(4-chloro-3-fluorophenoxy)acetamido]bicyclo[1.1.1]pentan-1-yl}-2-(oxan-4-yl)-1,3-oxazole-5-carboxamide] | 250 to 1000 |
| Cn1cc(C(=O)NC23CC(NC(=O)COc4ccc(Cl)c(F)c4)(C2)C3)cn1 [Compound 246, N-{3-[2-(4-chloro-3-fluorophenoxy)acetamido]bicyclo[1.1.1]pentan-1-yl}-1-methyl-1H-pyrazole-4-carboxamide] | 250 to 1000 |
| O=C(COc1ccc(Cl)c(F)c1)NC12CC(NC(=O)c3ccncc3F)(C1)C2 [Compound 817, N-{3-[2-(4-chloro-3-fluorophenoxy)acetamido]bicyclo[1.1.1]pentan-1-yl}-3-fluoropyridine-4-carboxamide] | > 2000 |
| Cc1ncc(C(=O)NC23CC(NC(=O)COc4ccc(Cl)c(F)c4)(C2)C3)nc1C [Compound 196, N-{3-[2-(4-chloro-3-fluorophenoxy)acetamido]bicyclo[1.1.1]pentan-1-yl}-5,6-dimethylpyrazine-2-carboxamide] | 250 to 1000 |
| O=C(COc1ccc(Cl)c(F)c1)NC12CC(NC(=O)c3ccnc(C(=O)NCCO)c3)(C1)C2 [Compound 288, N^4-{3-[2-(4-chloro-3-fluorophenoxy)acetamido]bicyclo[1.1.1]pentan-1-yl}-N^2-(2-hydroxyethyl)pyridine-2,4-dicarboxamide] | > 2000 |
| O=C(COc1ccc(Cl)c(F)c1)NC12CC(NC(=O)c3scc4c3OCCO4)(C1)C2 [Compound 873, N-{3-[2-(4-chloro-3-fluorophenoxy)acetamido]bicyclo[1.1.1]pentan-1-yl}-2,3-dihydrothieno[3,4-b][1,4]dioxine-5-carboxamide] | > 2000 |
| O=C(COc1ccc(Cl)c(F)c1)NC12CC(NC(=O)c3cc(C(F)(F)F)ccn3)(C1)C2 [Compound 176, N-{3-[2-(4-chloro-3-fluorophenoxy)acetamido]bicyclo[1.1.1]pentan-1-yl}-4-(trifluoromethyl)pyridine-2-carboxamide] | 50 to 250 |
| O=C(COc1ccc(Cl)c(F)c1)NC12CC(NC(=O)c3ncccn3)(C1)C2 [Compound 793, N-{3-[2-(4-chloro-3-fluorophenoxy)acetamido]bicyclo[1.1.1]pentan-1-yl}pyrimidine-2-carboxamide] | 250 to 1000 |
| Cc1coc(C(=O)NC23CC(NC(=O)COc4ccc(Cl)c(F)c4)(C2)C3)c1 [Compound 613, N-{3-[2-(4-chloro-3-fluorophenoxy)acetamido]bicyclo[1.1.1]pentan-1-yl}-4-methylfuran-2-carboxamide] | 50 to 250 |
| O=C(COc1ccc(Cl)c(F)c1)NC12CC(NC(=O)c3cnn(C(F)F)c3)(C1)C2 [Compound 724, N-{3-[2-(4-chloro-3-fluorophenoxy)acetamido]bicyclo[1.1.1]pentan-1-yl}-1-(difluoromethyl)-1H-pyrazole-4-carboxamide] | 250 to 1000 |
| N#CCCc1ccc(C(=O)NC23CCC(NC(=O)COc4ccc(Cl)c(F)c4)(C2)C3)nc1 [Compound 336, N-{4-[2-(4-chloro-3-fluorophenoxy)acetamido]bicyclo[2.1.1]hexan-1-yl}-5-(2-cyanoethyl)pyridine-2-carboxamide] | > 2000 |
| Cc1cc(C(=O)NC23CC(NC(=O)COc4ccc(Cl)c(Cl)c4)(C2)C3)sn1 [Compound 617, N-{3-[2-(3,4-dichlorophenoxy)acetamido]bicyclo[1.1.1]pentan-1-yl}-3-methyl-1,2-thiazole-5-carboxamide] | < 50 |
| Cc1cc(C(=O)NC23CCC(NC(=O)COc4ccc(Cl)c(F)c4)(CC2)C(O)C3)n(C)n1 (stereo not drawn) [Compound 447, N-{4-[2-(4-chloro-3-fluorophenoxy)acetamido]-3-hydroxybicyclo[2.2.2]octan-1-yl}-1,3-dimethyl-1H-pyrazole-5-carboxamide] | 50 to 250 |
| CC(C)Cc1cc(C(=O)NC23CC(NC(=O)COc4ccc(Cl)c(F)c4)(C2)C3)on1 [Compound 348, N-{3-[2-(4-chloro-3-fluorophenoxy)acetamido]bicyclo[1.1.1]pentan-1-yl}-3-(2-methylpropyl)-1,2-oxazole-5-carboxamide] | 50 to 250 |
| CS(=O)(=O)c1ccccc1C(=O)NC12CC(NC(=O)COc3ccc(Cl)c(F)c3)(C1)C2 [Compound 827, N-{3-[2-(4-chloro-3-fluorophenoxy)acetamido]bicyclo[1.1.1]pentan-1-yl}-2-(methanesulfonyl)benzamide] | > 2000 |
| COc1nccnc1C(=O)NC12CCC(NC(=O)COc3ccc(Cl)c(F)c3)(CC1)C(O)C2 (stereo not drawn) [Compound 274, N-{4-[2-(4-chloro-3-fluorophenoxy)acetamido]-3-hydroxybicyclo[2.2.2]octan-1-yl}-3-methoxypyrazine-2-carboxamide] | 250 to 1000 |
| Cc1nc(C)c(C(=O)NC23CCC(NC(=O)COc4ccc(Cl)c(F)c4)(CC2)C(O)C3)s1 (stereo not drawn) [Compound 446, N-{4-[2-(4-chloro-3-fluorophenoxy)acetamido]-3-hydroxybicyclo[2.2.2]octan-1-yl}-2,4-dimethyl-1,3-thiazole-5-carboxamide] | 250 to 1000 |
| Cc1nn(C)c2ncnc(NC34CC(NC(=O)COc5ccc(Cl)c(F)c5)(C3)C4)c12 [Compound 435, 2-(4-chloro-3-fluorophenoxy)-N-{3-[(1,3-dimethyl-1H-pyrazolo[3,4-d]pyrimidin-4-yl)amino]bicyclo[1.1.1]pentan-1-yl}acetamide] | > 2000 |
| Cc1nc(C(=O)NC23CC(NC(=O)COc4ccc(Cl)c(F)c4)(C2)C3)cs1 [Compound 539, N-{3-[2-(4-chloro-3-fluorophenoxy)acetamido]bicyclo[1.1.1]pentan-1-yl}-2-methyl-1,3-thiazole-4-carboxamide] | 50 to 250 |
| O=C(COc1ccc(Cl)c(F)c1)NC12CC(NC(=O)c3cc(F)cc(F)c3)(C1)C2 [Compound 513, N-{3-[2-(4-chloro-3-fluorophenoxy)acetamido]bicyclo[1.1.1]pentan-1-yl}-3,5-difluorobenzamide] | 50 to 250 |
| Cc1ncsc1C(=O)NC12CC(NC(=O)COc3ccc(Cl)c(F)c3)(C1)C2 [Compound 558, N-{3-[2-(4-chloro-3-fluorophenoxy)acetamido]bicyclo[1.1.1]pentan-1-yl}-4-methyl-1,3-thiazole-5-carboxamide] | 1000 to 2000 |

Source: US10913727B2, “Modulators of the integrated stress pathway” (Calico Life Sciences LLC, priority 2016, dated 2021)
